The results in this text go back to ChEMBL document CHEMBL1127625, “Modulation of the kynurenine pathway in search for new neuroprotective agents. Synthesis and preliminary evaluation of (m-nitrobenzoyl)alanine, a potent inhibitor of kynurenine-3-hydroxylase” (J Med Chem, 1994).

Data set [1] concerns the target Kynurenine 3-monooxygenase (Rattus norvegicus, UniProt O88867). The data set can be described thus: Ability to inhibit kynurenine-3-hydroxylase was determined in a competitive inhibition assay.
Data set [2] addresses Kynurenine 3-monooxygenase (Rattus norvegicus) (UniProt O88867). The data set can be described thus: Differences in inhibition of kynurenine-3-hydroxylase by m-NBA versus compound is determined.
A further data set concerns the target T1, Kynureninase (Rattus norvegicus, UniProt P70712).
T1 sequence (P70712 whole entry): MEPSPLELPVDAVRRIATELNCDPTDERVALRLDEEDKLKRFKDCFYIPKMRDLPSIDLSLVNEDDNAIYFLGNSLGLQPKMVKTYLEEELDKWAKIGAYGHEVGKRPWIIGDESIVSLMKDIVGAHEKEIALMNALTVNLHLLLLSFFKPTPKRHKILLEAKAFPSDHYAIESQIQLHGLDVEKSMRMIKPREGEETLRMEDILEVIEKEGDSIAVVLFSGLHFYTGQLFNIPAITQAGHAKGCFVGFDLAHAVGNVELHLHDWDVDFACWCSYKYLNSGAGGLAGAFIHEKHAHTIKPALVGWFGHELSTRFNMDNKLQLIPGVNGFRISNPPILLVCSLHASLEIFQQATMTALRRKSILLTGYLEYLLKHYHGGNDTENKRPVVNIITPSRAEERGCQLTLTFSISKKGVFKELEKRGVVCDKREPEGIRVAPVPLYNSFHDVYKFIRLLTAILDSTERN
The data set can be described thus: Ability to inhibit kynureninase was determined in a competitive inhibition assay.

Data set [3] relates to Mus musculus. Nature of the data set: Sedative and anticonvulsant effects at dose 400 mg/kg, administered intraperitoneally; value expressed as death /tested =2/6. It counts as organism-based. Also noted: dose 400 mg/kg, route intraperitoneal. Conditions: in vivo, ip.
Data set [4] deals with Rattus norvegicus. The data set can be described thus: Effect on kynurenic acid (KYNA) content in rat liver at dose 400 mg/kg administered intraperitoneally. It counts as functional. The settings on record: route intraperitoneal.
Data set [5] relates to Rattus norvegicus. The data set can be described thus: Effect on kynurenic acid (KYNA) content in rat blood at dose 400 mg/kg administered intraperitoneally. It counts as functional. Conditions: route intraperitoneal.
Data set [6] deals with Mus musculus. The data set can be described thus: Sedative and anticonvulsant effects at dose 200 mg/kg, administered intraperitoneally; value expressed as death /tested =0/13. It counts as ADME, organism-based. Further details: dose 200 mg/kg, route intraperitoneal. The settings on record: in vivo, ip.
Data set [7] relates to Mus musculus. Nature of the data set: Sedative and anticonvulsant effects at dose 400 mg/kg, administered intraperitoneally; value expressed as clonic /tested =4/6. The class given is functional. The settings on record: route intraperitoneal.
Data set [8] relates to Mus musculus. Nature of the data set: Sedative and anticonvulsant effects at dose 200 mg/kg, administered intraperitoneally; value expressed as clonic /tested =6/13. Conditions: route intraperitoneal. It counts as functional.
The subject of data set [9] is Mus musculus. Nature of the data set: Sedative and anticonvulsant effects at dose 400 mg/kg, administered intraperitoneally; value expressed as tonic /tested =2/6. The settings on record: route intraperitoneal. The class given is functional.
For data set [10], the system named is Rattus norvegicus. The data set can be described thus: Effect on […] (KYN) content in rat brain at dose 400 mg/kg administered intraperitoneally. The class given is functional. The settings on record: route intraperitoneal.
For data set [11], the system named is Rattus norvegicus. Nature of the data set: Effect on […] (KYN) content in rat liver at dose 400 mg/kg administered intraperitoneally. Conditions: route intraperitoneal. The class given is functional.
Data set [12] concerns Rattus norvegicus. The data set can be described thus: Effect on […] (KYN) content in rat blood at dose 400 mg/kg administered intraperitoneally. The class given is functional. Conditions: route intraperitoneal.
Data set [13] has as its system Mus musculus. The data set can be described thus: Sedative and anticonvulsant effects at dose 200 mg/kg, administered intraperitoneally; value expressed as tonic /tested =1/13. It counts as functional. Conditions: route intraperitoneal.
Data set [14] has as its system Rattus norvegicus. Nature of the data set: Effect on kynurenic acid (KYNA) content in rat brain at dose 400 mg/kg administered intraperitoneally. It counts as functional. The settings on record: route intraperitoneal.

Structures are written as SMILES.

Chain of Kynurenine 3-monooxygenase (Rattus norvegicus) (O88867 whole entry, looked up): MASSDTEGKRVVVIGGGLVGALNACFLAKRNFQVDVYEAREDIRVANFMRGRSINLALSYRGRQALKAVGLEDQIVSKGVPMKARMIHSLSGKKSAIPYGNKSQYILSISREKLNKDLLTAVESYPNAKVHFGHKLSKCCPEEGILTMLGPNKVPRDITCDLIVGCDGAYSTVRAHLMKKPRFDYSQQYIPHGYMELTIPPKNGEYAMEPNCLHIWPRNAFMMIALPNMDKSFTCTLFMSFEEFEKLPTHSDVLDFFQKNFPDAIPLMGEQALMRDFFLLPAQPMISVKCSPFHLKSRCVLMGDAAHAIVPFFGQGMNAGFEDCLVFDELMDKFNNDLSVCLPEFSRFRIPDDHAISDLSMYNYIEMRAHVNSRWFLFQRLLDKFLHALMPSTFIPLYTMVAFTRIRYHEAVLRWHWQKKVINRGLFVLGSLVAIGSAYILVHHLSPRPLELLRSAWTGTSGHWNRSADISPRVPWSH
Chain of Kynurenine 3-monooxygenase (O88867 whole entry): as the sequence (O88867 whole entry, looked up) above

Regarding `NC(CC(=O)c1ccc([N+](=O)[O-])cc1)C(=O)O` (configuration not stated), the IC50 in [1] stood at 300 µM; on Kynureninase it was 900 µM. Further, the -Log IC50/IC50 in data set [2] was 2.52.

For the compound `NC(CC(=O)c1ccccc1[N+](=O)[O-])C(=O)O` (configuration not stated) [(ortho-nitrobenzoyl)alanine], the IC50 amounted to 2000 µM in data set [1] and 100 µM on Kynureninase. The compound also displayed a -Log IC50/IC50 in data set [2] of 2.94.

Take `NC(CC(=O)c1cccnc1)C(=O)O` (configuration not stated) [NICOTINOYLALANINENAL]: the figures for the IC50 (in [1]; on Kynureninase) were 900 µM and 800 µM, respectively. Also, in [2], the -Log IC50/IC50 was determined as 2.89.

For `NC(CC(=O)c1cccc([N+](=O)[O-])c1)C(=O)O` (configuration not stated), the Death with Mus musculus [3] is recorded as 2; in the data set on Mus musculus [6] it was 0. In addition, the Effect in the data set on Rattus norvegicus [4] was 250 pmol/g; in the data set on Rattus norvegicus [5], 120 pmol/g; with Rattus norvegicus [10], 4000 pmol/g; in the data set with Rattus norvegicus [11], 4000 pmol/g; in the data set on Rattus norvegicus [12] it was 16000 pmol/g; in the data set on Rattus norvegicus [14], 150 pmol/g. For the same compound, the Clonic with Mus musculus [7] is recorded as 4; with Mus musculus [8], 6. For the same compound, the figures for the Tonic in the data set on Mus musculus [9] and in the data set with Mus musculus [13] were 2 and 1, respectively. This compound also showed an IC50 on Kynureninase of 100 µM.

As usually defined, the IC50 is the midpoint of a concentration-inhibition curve.
